Data on eight compounds can be found in patent US20240216413A1, “THIONUCLEOSIDES AS ANTIVIRAL AGENTS” (priority 2021, published 2024).

Where two headings read alike, the source gives them in different places.

Data set [1] in a line: Cytotoxicity in PBM cells. The format is cell-based. The settings on record: human. As to the method:
(§1) The toxicity of the compounds was assessed in Vero, human PBM, CEM (human lymphoblastoid), MT-2, and HepG2 cells, as described previously (see Schinazi R. F., Sommadossi J.-P., Saalmann V., Cannon D. L., Xie M.-Y., Hart G. C., Smith G. A. & Hahn E. F. Antimicrob. Agents Chemother. 1990, 34, 1061-67). Cycloheximide was included as positive cytotoxic control, and untreated cells exposed to solvent were included as negative controls. The cytotoxicity IC50 or CC50 was obtained from the concentration-response curve using the median effective method described previously (see Chou T.-C. & Talalay P. Adv. Enzyme Regul. 1984, 22, 27-55; Belen'kii M. S. & Schinazi R. F. Antiviral Res. 1994, 25, 1-11).

Data set [2] can be described thus: Cytotoxicity in Vero cells. The note with it: African green monkey, Vero cells (kidney).
Data set [3] deals with SARS-CoV-2. The data set is described as follows: Anti-SARS-CoV-2 activity (Calu3). Type of data set: cell-based.
The nature of data set [4]: Cytotoxicity in Huh7 cells. Type of data set: cell-based. The note with it: human.
In data set [5] the test system is SARS-CoV-2. In words: Anti-SARS-CoV-2 activity (Vero). The format is cell-based. The settings on record: Severe acute respiratory syndrome coronavirus 2, MOI 0.1, 48 hr.
The test system of another data set is HCoV-OC43. The data set is described as follows: Anti-HCoV-OC43 activity. The format is cell-based.
The nature of data set [6]: in vitro. The settings on record: human, Caco-2.
The subject of data set [7] is Omicron. The data set is described as follows: Anti-Omicron activity (Calu-3). The format is cell-based, SARS-CoV-2.
The test system of data set [8] is SARS-CoV-2. The data set is described as follows: Anti-SARS-CoV-2 activity (Caco2). The settings on record: Severe acute respiratory syndrome coronavirus 2, Caco-2, 72 h; for EC50: read-out: Anti-SARS-CoV-2 Activity (Caco2) EC50.
Data set [9] is described as follows: Cytotoxicity in CEM cells. The format is cell-based. The note with it: human, CEM lymphoblastoid cells. On the procedure:
as §1

Data set [10] relates to SARS-CoV-2. The data set is described as follows: Anti-SARS-CoV-2 activity, 3D primary culture (HAE-ALI). The format is cell-based. The settings on record: Severe acute respiratory syndrome coronavirus 2, air-liquid interface.
In data set [11] the test system is Omicron. The data set is described as follows: microbe, parasite or virus in culture. The note with it: for EC90: Severe acute respiratory syndrome coronavirus 2, Caco-2, read-out: Anti-Omicron Activity (Caco-2) EC90.
Data set [12] can be described thus: in vitro. The settings on record: human.
Data set [13] has as its system SARS-CoV-2. The data set is described as follows: Anti-SARS-CoV-2 activity, 3D primary culture (Organoids). Type of data set: cell-based.
Data set [14] has as its system mitochondrial DNA (COXII gene). In words: Mitochondrial toxicity in HepG2 cells (MtDNA / rDNA). The note with it: human, HepG2 cells.
Data set [15] has as its system rDNA (rRNA gene, nuclear reference). The description is as above. The note with it: human, HepG2 cells.
The subject of a further data set is HepG2 cells. The description is as above. The note with it: Homo sapiens.
Setting [16] is: Severe acute respiratory syndrome coronavirus 2, Calu-3, Calu3, MOI 1.0, 72 hr.
[17] abbreviates: Severe acute respiratory syndrome coronavirus 2, Caco-2, read-out: Anti-Omicron Activity (Caco-2) EC50.
Where [18] appears, read: Severe acute respiratory syndrome coronavirus 2, Omicron, Calu-3, read-out: Anti-Omicron Activity (Calu-3) EC50.
Where [19] appears, read: Severe acute respiratory syndrome coronavirus 2, Omicron, Calu-3, read-out: Anti-Omicron Activity (Calu-3) EC90.

For the compound `O=c1nc(NO)ccn1[C@@H]1S[C@H](CO)C(O)C1O` (stereo in doubt) [Compound 17, 1-((2R,3S,4R,5R)-3,4-dihydroxy-5-(hydroxymethyl)-tetrahydrothiophen-2-yl)-4-(hydroxyamino) pyrimidin-2(1H)-one], the CC50 in [1], in data set [2] and in [4] was greater than 100 µM each time. Further, the EC50 in the data set on SARS-CoV-2 [3] (setting [16]) and with SARS-CoV-2 [5] was less than 10 µM each time.
With `O=c1ccn([C@@H]2S[C@H](CO)[C@@H](O)[C@H]2O)c(=O)[nH]1` [Compound 8, 1-((2R,3R,4S,5R)-3,4-dihydroxy-5-(hydroxymethyl)tetrahydrothiophen-2-yl)pyrimidine-2,4(1H,3H)-dione], the CC50 in data set [1] was greater than 100 µM; in “in vitro [6]”, greater than 100 µM; in [2] it was 68.3 µM; in data set [9] it was 20.5 µM; in data set [4], greater than 100 µM; in the data set “in vitro [12]” it was greater than 100 µM. In addition, the EC50 with HCoV-OC43 (Betacoronavirus 1, OC43, read-out: Anti-HCoV-OC43 Activity EC50) was 2.2 to 2.5 µM; with Omicron [7] (Severe acute respiratory syndrome coronavirus 2, Calu-3, read-out: Anti-Omicron Activity (Calu-3) EC50) it was 0.9 to 1.3 µM; in the data set with SARS-CoV-2 [8] it was 1.1 µM; in the data set with SARS-CoV-2 [10] it was 0.04 µM; with Omicron [11] (setting [17]), 8.2 µM; with SARS-CoV-2 [13] (Severe acute respiratory syndrome coronavirus 2, 3D primary culture, organoids, read-out: Anti-SARS-CoV-2 Activity (Organoids) EC50) it was 0.7 µM. In addition, in the data set on SARS-CoV-2 [5], the EC50 is 0.4 µM. Also, the EC90 in the data set on HCoV-OC43 (Betacoronavirus 1, OC43, read-out: Anti-HCoV-OC43 Activity EC90) was 6.1 to 7.3 µM; in the data set with Omicron [7] (Severe acute respiratory syndrome coronavirus 2, Calu-3, read-out: Anti-Omicron Activity (Calu-3) EC90), 2.7 to 4.4 µM; in the data set on SARS-CoV-2 [10] it was 0.1 µM; with Omicron [11], greater than 10 µM; in the data set on SARS-CoV-2 [3] (setting [16]), 3.5 µM; in the data set on SARS-CoV-2 [5] it was 0.8 µM. The CC50 at 7 days in data set [14] and in [15] was greater than 100 µM throughout. The inhibition at 100 µM is less than 1% in the data set on HepG2 cells (HepG2, read-out: inhibition of MtDNA at 100 μM) and 36.3% in the data set with HepG2 cells (HepG2, read-out: inhibition of rDNA at 100 μM).
`Nc1ccn([C@@H]2S[C@H](CO)[C@@H](O)[C@H]2O)c(=O)n1` [Compound 9, 4-amino-1-((2R,3R,4S,5R)-3,4-dihydroxy-5-(hydroxymethyl)tetrahydrothiophen-2-yl)pyrimidin-2(1H)-one]: the CC50 in [1] is greater than 100 µM; in data set [2] it was 71.8 µM; in [9], 28 µM; in data set [4], 93.1 µM. In addition, the EC50 in the data set on SARS-CoV-2 [8] worked out at 4.9 µM; with SARS-CoV-2 [3] (setting [16]), 1.9 µM; with SARS-CoV-2 [5] it was 0.2 µM. Further, the figures for the EC90 in the data set on SARS-CoV-2 [8] (read-out: Anti-SARS-CoV-2 Activity (Caco2) EC90), in the data set on SARS-CoV-2 [3] (setting [16]) and in the data set on SARS-CoV-2 [5] were greater than 10 µM, 3.9 µM and 4.5 µM, respectively.
Take `CC(C)OC(=O)[C@H](C)N[P@](=O)(OC[C@H]1S[C@@H](n2ccc(=O)[nH]c2=O)[C@H](O)[C@@H]1O)Oc1ccccc1` [Compound 13, Isopropyl ((S)-(((2R,3S,4R,5R)-5-(2,4-dioxo-3,4-dihydropyrimidin-1(2H)-yl)-3,4-dihydroxytetrahydrothiophen-2-yl)methoxy)(phenoxy)phosphoryl)-L-alaninate]: the CC50 in data set [1], in data set [2], in [9] and in data set [4] was greater than 100 µM each time. The same compound showed an EC50 in the data set with SARS-CoV-2 [5] greater than 10 µM.
For `CC(C)OC(=O)[C@H](C)N[P@](=O)(OC[C@H]1S[C@@H](n2ccc(N)nc2=O)[C@H](O)[C@@H]1O)Oc1ccccc1` [Compound 16, Isopropyl ((S)-(((2R,3S,4R,5R)-5-(4-amino-2-oxopyrimidin-1(2H)-yl)-3,4-dihydroxytetrahydrothiophen-2-yl)methoxy)(phenoxy)phosphoryl)-L-alaninate], the CC50 in data set [1], in data set [2], in [9] and in data set [4] was greater than 100 µM in each case. This compound also came in with a half-maximal effective concentration (EC50) in the data set with SARS-CoV-2 [5] greater than 10 µM.
Turning to `O=c1nc(NO)ccn1[C@@H]1O[C@H](CO)[C@@H](O)[C@H]1O` [NHC, N4-hydroxycytidine], the EC50 in the data set on Omicron [7] (setting [18]) is 0.4 µM; in the data set on Omicron [11] (setting [17]) it was greater than 10 µM; in the data set on Omicron [11] (Severe acute respiratory syndrome coronavirus 2, Caco-2, read-out: Anti-Omicron Activity (Caco-2) EC50, value in parentheses), 13.3 µM. In addition, the EC90 with Omicron [7] (setting [19]) was 1.2 µM. Also, the figures for the CC50 in [2] and in data set [9] were 16.5 µM and 2.6 µM, respectively.
In the case of `CCC(CC)COC(=O)[C@H](C)N[P@](=O)(OC[C@H]1O[C@@](C#N)(c2ccc3c(N)ncnn23)[C@H](O)[C@@H]1O)Oc1ccccc1` [Remdesivir, reference compound], the CC50 in data set [1] was found to be 6.4 µM; in [9], 12 µM; in data set [4], 1.5 µM. The EC50 was 0.007 to 0.03 µM in the data set with HCoV-OC43 (Betacoronavirus 1, OC43; read-out: Anti-HCoV-OC43 Activity EC50); 0.2 to 0.3 µM in the data set on Omicron [7] (setting [18]); 0.6 µM in the data set with SARS-CoV-2 [10]; 0.05 µM in the data set on Omicron [11] (setting [17]); 0.1 µM with SARS-CoV-2 [3] (Severe acute respiratory syndrome coronavirus 2, Calu-3, 72 h); 0.7 µM with SARS-CoV-2 [13] (Severe acute respiratory syndrome coronavirus 2, read-out: Anti-SARS-CoV-2 Activity (Organoids) EC50). Also, the EC90 with HCoV-OC43 (Betacoronavirus 1, OC43; read-out: Anti-HCoV-OC43 Activity EC90) was 0.03 to 0.08 µM; in the data set with Omicron [7] (setting [19]), 0.6 to 0.7 µM; in the data set with Omicron [11], 0.4 µM; with SARS-CoV-2 [13] (Severe acute respiratory syndrome coronavirus 2, 3D primary culture, organoids), 1.5 µM.
As for `C[C@@H]1C[C@@H]([C@H](O)CC2CC(=O)NC(=O)C2)C(=O)[C@@H](C)C1` [cyclohexamide, Cycloheximide, reference compound], the CC50 in the data set “in vitro [6]” and in the data set “in vitro [12]” was 10 µM each time.
